Experimental findings from article PMC7737769, “Pharmacological inhibition of syntenin PDZ2 domain impairs breast cancer cell activities and exosome loading with syndecan and EpCAM cargo” (Journal of Extracellular Vesicles, 2020) are described below.

Data set [1] concerns the target T1, syntenin‐SDC2 complex (GST-SyntFL / SDC2 peptide) (Homo sapiens, UniProt O00560).
T1 construct: residues 1–298 or syntenin full‐length (FL) for HTRF assays; made in house; host or cells: E. coli ER2566
T1 sequence (O00560 1-298): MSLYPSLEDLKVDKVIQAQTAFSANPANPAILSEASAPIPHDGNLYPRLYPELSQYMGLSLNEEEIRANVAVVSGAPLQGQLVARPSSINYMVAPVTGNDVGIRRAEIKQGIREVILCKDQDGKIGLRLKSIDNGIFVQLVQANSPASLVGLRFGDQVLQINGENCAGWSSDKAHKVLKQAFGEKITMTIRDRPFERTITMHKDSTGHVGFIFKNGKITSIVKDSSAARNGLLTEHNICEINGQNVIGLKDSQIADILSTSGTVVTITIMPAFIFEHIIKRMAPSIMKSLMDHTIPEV
Nature of the data set: HTRF assay, syntenin-SDC2 interaction. Conditions: for pIC50: HTRF dose-response, read-out: IC50 for syntenin‐SDC2 complexes; for inhibition at 400 µM: HTRF. It is filed as biochemical.

Data set [2] relates to T2, GRASP55‐JAM‐B complex.
T2 construct: Human GRASP55 tandem PDZ; made in house; host or cells: E. coli BL21 (DE3)
Nature of the data set: HTRF assay, GRASP55-JAM-B interaction. The class given is biochemical, human. The protocol: (§1) HTRF assays were performed in white 96Well Small VolumeHiBase Polystyrene Microplates (Greiner) with a total working volume of […], as described previously (Milhas et al., 2016). Briefly, compounds were firstly dispensed into the wells at 400 µM for the primary screen or with serial DMSO dilutions for IC50 measurement assays. Primary screening assays have been performed in monoplicate while IC50 measurements were performed in triplicates. All HTRF reagents were purchased from CisBio Bioassays and reconstituted according to the supplier protocols. The plates were spun for 3 min at 500 × g and then incubated at 4°C for 16 h. The HTRF signals were recorded on a POLAR star Omega plate reader (BMG Labtech) with an excitation filter at 337 nm and fluorescence wavelength measurement at 620 and 665 nm, an integration delay of 60 µs and an integration time of 400 µs. Results were analysed with a two‐wavelength signal ratio: [intensity (665 nm)/intensity (620 nm)] × 10^4. Percentage of inhibition was calculated using the following equation: % inhibition = [(compound signal)–(min signal)]/[(max signal)–(min signal)] × 100, where ‘max signal’ is the signal ratio with the compound vehicle alone (DMSO) and ‘min signal’ the signal ratio without protein B. For IC50 measurements, values were normalized and fitted with Prism (GraphPad software) using the following equation: Y = 100/(1+((X/ IC50)ˆHill slope)).
(§2) The search strategy for PDZ2 syntenin inhibitors was based on the PDZ targeted library developed from Enamine compound collection. The PDZ targeted library was developed to cover virtually all PDZ domains. Consequently, to create the syntenin PDZ2 focused library we used two independent paths: docking of the PDZ targeted library against structures of syntenin PDZ2 available in Protein Data Bank and a random selection from the PDZ targeted library. The docking has produced 21 virtual hits, which were added to 118 randomly selected compounds (10% of the pan PDZ library). The resultant set of 139 compounds, syntenin PDZ library was subjected to experimental validation. The primary screen was performed at 400µM using a previously validated Homogeneous Time Resolved Fluorescence (HTRF) assay (Milhas et al., 2016). HTRF is based on Fluorescence Resonance Energy Transfer (FRET) between two fluorescent reagents. In the present case, Anti‐GST‐Terbium antibody and streptavidin‐bound Dynamic2 were used as donor and acceptor respectively. Interactions between GST PDZ‐fusion proteins and biotinylated peptides containing PDZ binding motifs were challenged with the potential inhibitors. In parallel, control experiments were performed with a biotinylated‐GST to verify that compounds were not interfering with the FRET signal in a non‐specific manner. To identify inhibitors of syntenin PDZ interactions, we tested for the effect of the 139 compounds on syntenin‐SDC2 and syntenin‐Frizzled7 complexes (Figure 1a; Table S1). When the HTRF signal dropped below 0.9, inhibition was considered as effective. […] Noteworthy, these compounds had no effect on other PDZ complexes like GRASP55‐JAM‐B or GRASP55‐JAM‐C and Erbin‐Erbb2 or Erbin‐P0071 (Figure 1c).
(In general: Time-resolved FRET reads energy transfer from a long-lived donor to a nearby acceptor.)

For data set [3], the system named is T3, Erbin‐P0071 complex.
T3 construct: human Erbin PDZ domain; made in house; host or cells: E. coli BL21 (DE3)
Nature of the data set: HTRF assay, Erbin-P0071 interaction. It is filed as biochemical, human. The protocol: as §1, §2

Data set [4] deals with MCF‐7 cells. In words: Cancer cell viability (Annexin V/7-AAD flow cytometry), MCF-7. The class given is cell-based. Conditions: MCF-7, concentrations up to 100 µM, 48 h. Here is the method:
The effects of the compounds C58 and SyntOFF were tested both on MCF‐7 and MCF‐7 SyntKO cells. Briefly, the cells were treated with increasing concentrations of the compounds for 48 h and early/late apoptosis was measured by using the FITC Annexin V apoptosis detection kit with 7‐AAD (Biolegend, San Diego, CA, USA) according to the manufacturer. Annexin V positive but 7‐AAD negative (early apoptotic cells) and Annexin V positive and 7‐AAD positive (late stage apoptosis) was determined by using FACS LSRII flow cytometer (BD Biosciences) and data were analysed with Flowjo software (Tree Star).
For orientation: In flow cytometry, cells or beads pass a laser one at a time.

The test system of data set [5] is MCF‐7 cells. In words: Mammosphere formation assay, MCF-7. The class given is cell-based. As to conditions: wild-type MCF-7, 50 & 100 µM. The protocol: MCF‐7 and MCF‐7 SyntKO cells were treated with increasing concentrations of compounds C58, SyntOFF (50‐100µM) or DMSO 0.2% as control. After 24 h, cells were trypsinized, re‐suspended in normal growth media and washed three times in PBS to remove serum. Cell concentration was determined using the LUNA-FL Automated Fluorescence Cell Counter (Logos Biosystem) and cells were then seeded at 1000 cells/ml in 6‐well Ultra low Adherence plates (Corning Inc., Corning, NY) in MEBM medium (Lonza) supplemented with 5 µg/ml insulin (Sigma‐Aldrich), 20 ng/ml recombinant epidermal growth factor (Sigma‐Aldrich), 1X of B27 supplement (Invitrogen, Carlsbad, CA, USA), 0.5 µg/ml hydrocortisone (Sigma‐Aldrich), 1X of β‐mercaptoethanol and 1% penicillin/streptomycin (Gibco). Fresh medium was added into the plates every 3–4 days. The number of spheres (diameter > 50 µm) was evaluated under microscope on days 7–10. Sphere formation was calculated as the number of spheres divided by the original number of cells seeded and normalized to control.

pIC50: −log10 of the molar value. “And” between values parts separate entries of the source, which are not always exact repeats. Equal values may be shown once. “Also recorded” adds a separate entry of the source. Read-outs that look alike come from different tables or passages of the source.

Consider `CC(C)[C@H](NC(=O)CSc1ccc(Cl)cc1)C(=O)O` [Compound C58], for which, in data set [1], the ligand efficiency amounted to 0.24 kcal/mol/atom and the pIC50 is 3.46. The “GST SyntFL Syndecan 2 (signal ratio)” value in data set [1] (400µM compound, Figure 1c) was 0.36. Besides, the “inhibition of syntenin PDZ interactions” value in data set [1] (HTRF primary screen, 400µM, syntenin-SDC2 and syntenin-Frizzled7) is “inhibit”. In data set [1] (syntenin-SDC2 and syntenin-Frizzled 7 complexes, read-out: extent of inhibition of Syntenin‐PDZ complexes), the inhibition at 400 µM amounted to 60%. Also, in data set [2] (400µM compound, Figure 1c), the “GST-GRASP JAM-B (signal ratio)” value is reported as 1.1. For the same compound, the “GST-Erbin P0071 (signal ratio)” value in data set [3] (400µM compound, Figure 1c) is on record as 1. For the same compound, in data set [4], the “toxicity (cell viability)” value was “not toxic; also recorded: non‐toxic”. For the same compound, the mammosphere formation result in data set [5] is given as “decreases”.
With `CC(C)[C@H](NC(=O)CCSc1ccc(Cl)cc1)C(=O)O` [SyntOFF, (S)‐2‐(3‐(4‐chlorophenylthio)propanamido)‐3‐methylbutanoic acid], in data set [1], the ligand efficiency stood at 0.30 kcal/mol/atom and the pIC50 is 4.43. For the same compound, the “fold improvement of the affinity as compared to C58” value in data set [1] (HTRF IC50) was > 10 fold and 10 fold. For the same compound, the inhibition at 400 µM in data set [1] (read-out: inhibition of the syntenin‐SDC2 interaction) came out at 96%. Further, the “effect on GRASP55‐JAM‐B complex” value in data set [2] (HTRF dose-response, Figure S2b) is “not affecting”. Besides, the “effect on Erbin‐P0071 complex” value in data set [3] (HTRF dose-response, Figure S2a) is reported as “not affecting”. Moreover, in data set [4], the “toxicity (cell viability)” value was “non‐toxic”. The mammosphere formation entry in data set [5] is listed as “decreases”.

Broadly, the pIC50 is the IC50 on a negative log10 scale, so that one unit is a factor of ten. A word on the inhibition: it is the percentage by which the read-out fell short of the control.
